Data from patent US20220054644A1, “NOVEL DRUG DELIVERY CONJUGATED MOIETY FOR ORAL ADMINISTRATION OF DRUG UNSUITABLE FOR ORAL ADMINISTRATION AND PREPARATION METHOD THEREOF” (ST PHARM CO., LTD, priority 2015, published 2022).

How the values were obtained:
[1] = test system: deep vein thrombosis (DVT) disease models; assay: Measurement of DVT activities (rat deep vein thrombosis model); assay type: in vivo; conditions: rats, LMWH (enoxaparin) injected subcutaneously
Experimental: Low molecular weight heparin (enoxaparin) was administered to one group by subcutaneous injection, and the formulated complex of Example 2 was administered orally to other groups. […] The distal end of the vein along about 3 cm was weakly tied off, and the remaining veins were strongly tied off. 60 minutes after the drug treatment, 1 mL/kg of human pooled plasma was administered intravenously to the ends of the tails at 37° C., and the veins were tied off after 15 seconds to prevent blood flow. The veins were isolated 120 minutes after the drug treatment and stored in a Petri dish with 3.8% sodium citrate. Then, thrombus was isolated, and the amount of […] generated was measured.

FXa (Bovine Factor Xa) = assay: Measurement of FXa: heparin activity with COATEST HEPARIN FXa assay kit; assay type: biochemical; conditions: chromogenic substrate S-2222, absorbance at 405 nm
Experimental: The term “heparin activity” refers to the anticoagulant ability of heparin.
Stock solutions were prepared from 10 IU/ml of standard solution by accurately preparing test substances and then diluted to 0.1 IU/ml with buffer working solution (Tris 0.5 mol/L, pH=8.4, 10 ml, Chromogenix) to prepare standard solutions for each dose as shown in the following table 2 and used for the analysis.
Each 200 μL of pretreated samples was placed in a cuvette and preheated at 37° C. for 3 to 4 minutes. Each 100 μl of FXa (Bovine Factor Xa 71 nkat., Chromogenix) was added thereto and left at 37° C. for about 30 seconds. Then, each 200 μl of S-2222 (Chromogenic substrate (Bz-Ile-Glu-(g-OR)-Gly-Arg-pNA.HCl), Chromogenix) was added thereto and left at 37° C. for 3 minutes. Subsequently, each 300 μl of 20% acetic acid was added thereto, and then the absorbance was measured at 405 nm. At this time, the measurement should be performed within 4 hours.
A linear regression equation was obtained using calibration curve of the standard solutions and converted to obtain the titers of the samples.

[2] = rat, in vivo, iv, 2 mg/kg
Experimental: The following experiment was performed to determine the pharmacokinetic (PK) behavior of heparin administered orally using the drug delivery conjugated moiety of the present invention.
Prior to drug administration, experimental animals (rats) were fasted for more than 4 hours to empty the stomach. Then, after the dorsal skin was fixed, forced oral administration was performed using a sonde and a syringe for oral administration, and the animals were fed again about 4 hours after the administration. […] Blood samples (450 μL) were collected in a tube containing sodium citrate (50 μL) and centrifuged at 4500×g for 20 minutes to isolate plasma, which was then stored in a deep freezer at −70° C. The concentration of the drug delivery conjugated moiety-heparin complex in the plasma was analyzed using the COATEST HEPARIN FXa assay (Chromogenix).

AUC (Area under the concentration-time curve from 0 to 8 h) [2]: 1.8 ± 0.1 IU · h/ml
CL (Clearance) [2]: 17 ± 0 mL/day/kg
Emax (Maximum effective concentration) [2]: 1.61 ± 0.02 IU/ml
Tmax (Time to reach maximum effective concentration) [2]: 12 ± 0 min
t1/2 (Half-life of drug) [2]: 72 ± 6 min
Substance: enoxaparin [LMWH]
thrombus generated, compared with complex of Example 2 [1]: almost the same results
Anti-factor Xa activity (FXa (Bovine Factor Xa)): 101 IU/mg
